Data on seven molecules can be found in PMC12410356 (International Journal for Parasitology: Drugs and Drug …, 2025).

Data set [1] deals with E. multilocularis metacestode vesicles. The data set can be described thus: Phosphoglucose isomerase (PGI) release assay (damage-marker release) on metacestode vesicles. The data set is classed as cell-based, Echinococcus multilocularis. Particulars: 10 μM; for PGI d5 (relative PGI release): 5 days; for PGI d12 (relative PGI release): 12 days.
For data set [2] the test system is unchanged. The data set can be described thus: Metacestode vesicle viability assay (ATP, CellTiter-Glo). The data set is classed as cell-based, Echinococcus multilocularis. The conditions noted are these: Echinococcus multilocularis, 288 h, 10 μM, 12 days, read-out: Viability d12 (relative viability). As to the method:
Viability was assessed after 12 days using the same metacestode vesicles as for the PGI release assay. Triton X-100 was added to each well to a final concentration of 0.1 %. Subsequently the metacestode vesicles were broken mechanically and 50 μL of the supernatant was mixed with 50 μL of CellTiter-Glo® buffer (Promega, Dübendorf, Switzerland). Measurements were performed on a HIDEX Sense microplate reader.

The next data set concerns HUVEC cell line. Also on record: method as in Mamouei et al., 2018. Particulars: at 15 μM; ref Mamouei et al., 2018; cited from earlier work.
For data set [3], the system named is Reuber rat hepatoma (RH) cells. As to the kind of experiment: Mammalian cell toxicity, resazurin assay. Type of data set: cell-based. The conditions noted are these: for toxicity against mammalian cell line (in words): RH cells counter-screen; for IC50: 5 days incubation, mean ± SD. As for the experimental part:
Mammalian cell toxicity on RH cells was measured as described in [Rufener et al. (2018)] with few alterations. Briefly, confluent (50′000 cells/well) and pre-confluent (5′000 cells/well) were seeded into 96-well plates in DMEM supplemented with 10 % FBS, penicillin (100 U/mL), streptomycin (100 μg/mL) and tetracycline (5 μg/mL) and incubated at 37 °C under a humid, 5 % CO2 atmosphere for 24 h and 5 h respectively. Alexidine, ESI-09 and MMV1581545 were added to final concentrations ranging from 120 to 0.49 μM (1:3 serial dilution) to each well and then cells were incubated at 37 °C under a humid, 5 % CO2 atmosphere for 5 days. To measure viability, the medium was removed, 180 μL of PBS was added to the cells and resazurin was added to each well to a final concentration of 10 mg/L. The cells were then allowed to process the resazurin at RT for 1 h. Fluorescence was measured on a HIDEX Sense microplate reader. Measurements were performed in triplicates and IC50 values were calculated in R using the three parameter Weibull type 1 model for three independent experiments ([Ritler et al., 2020]).

The subject of data set [4] is E. multilocularis GL cells. As to the kind of experiment: Germinal layer cell viability assay (CellTiter-Glo). Type of data set: cell-based, Echinococcus multilocularis. Particulars: for effect on GL cell viability (in words): 80 to 0.31 μM, 5 days; for IC50: Echinococcus multilocularis, 120 h, 5 days incubation, microaerobic, mean ± SD of three independent experiments. As to the method:
The isolation of GL cells was conducted according to ([Kaethner et al., 2023]). Briefly, conditioned DMEM (cDMEM) was prepared prior to isolation. For the preparation of cDMEM, 1 × 10^6 RH cells and 10 × 10^6 RH cells incubated in DMEM supplemented with 10 % FBS, penicillin (100 U/mL), streptomycin (100 μg/mL) and tetracycline (5 μg/mL) for six or four days, respectively, at 37 °C under a humid, 5 % CO2 atmosphere. The supernatant of each was mixed 1:1 and sterile filtrated, resulting in cDMEM. Metacestode vesicles of at least 6 months of age were washed with PBS, incubated in distilled H2O for 2.5 min and subsequently mechanically disrupted. The resulting pellet was resuspended in 7 vol of pre-warmed 0.05 % Trypsin/0.02 % EDTA and incubated at 37 °C for 30 min. GL cells were extracted from the laminated layer by vigorous shaking followed by filtration through a 30 μm mesh (Sefar AG, Heiden, Switzerland) and separated from calcareous corpuscles by short centrifugation at 50×g for 30 s at RT. The isolated cells were centrifuged for 10 min at 600×g and RT and the pellet was resuspended in cDMEM. The cell suspension was diluted 1:100 in PBS to measure the OD600. An OD600 value of 0.1 of this dilution was defined as one arbitrary unit (AU) per μL of the undiluted cell suspension corresponding to 0.97 ± 0.11 μg of total protein for the GL cells as measured via Pierce™ bicinchoninic acid (BCA) Protein Assay Kit according to the manufacturer's protocol (Fisher Scientific AG, Reinach, Switzerland). 1′000 AU per 5 mL of cDMEM were cultured at 37 °C overnight under a humid nitrogen atmosphere. The next day, 2′000 AU of GL cells were combined and further cultured for 3 h at 37 °C under a humid nitrogen atmosphere before they were used for further experiments.
To assess effects of compounds on the cell viability of isolated E. multilocularis GL cells, the protocol was applied as previously described ([Kaethner et al., 2023]). In short, 15 AU of GL cells were distributed into each well of a black 384-well plate. Compounds dissolved in DMSO (alexidine, carbendazim, ESI-09, MMV1581545 and oxfendazole) were added to final concentrations ranging from 80 to 0.31 μM (1:2 serial dilution) and the cells were cultured for 5 days at 37 °C under a humid, microaerobic atmosphere (85 % N2, 10 % CO2, 5 % O2). DMSO with the respective concentration was used as a solvent control. Viability was measured using the CellTiter-Glo® kit. Luminescence was measured using a HIDEX Sense microplate reader. Measurements were done in quadruplicates and represented as relative viability of the DMSO controls. IC50 values were calculated in R applying the five parameter logistic model for three independent experiments ([Ritler et al., 2020]).
For orientation: ATP-based viability assays read luminescence as a measure of living cells.

Data set [5] concerns E. multilocularis metacestode vesicles. Particulars: PGI release after five days, cited from earlier work.
Data set [6] deals with Reuber rat hepatoma (RH) cells. The conditions noted are these: cited from earlier work.
The subject of data set [7] is E. multilocularis GL cells. The data set can be described thus: Seahorse mito cell stress test, oxygen consumption rate. Type of data set: cell-based, Echinococcus multilocularis. Particulars: titration in GL cells. As for the experimental part:
To measure mitochondrial respiration in E. multilocularis GL cells, Seahorse “mito cell stress test” was performed according to the manual for Seahorse XFp Extracellular Flux Analyzer (Agilent Technologies, Basel, Switzerland) with some adaptations ([Gu et al., 2021]; [Rufener et al., 2018]). Seahorse XFp 8-well plates were hydrated and incubated together with Seahorse XF calibrant solution at 37 °C in a non-CO2 incubator overnight the day before the actual experiment. […] Oligomycin was used at a final concentration of 1.5 μM. […] The experiment was repeated three times independently with two technical replicates.

The subject of data set [8] is E. multilocularis GL cells. The arrangement: method as in Stadelmann et al., 2016. Particulars: ref Stadelmann et al., 2016; cited from earlier work.
Where [9] appears, read: confirmation screen, triplicates, mean.
Setting [10] is: overview screen, singlets, relative to 0.1 % Triton X-100, DMSO subtracted.
Where [11] appears, read: overview screen, singlets, relative to DMSO control.
Where [12] appears, read: Rattus norvegicus, 120 h, confluent, read-out: IC50 confluent RH cells.
The mark [13] stands for this setting: Rattus norvegicus, 120 h, pre-confluent, read-out: IC50 pre-confluent RH cells.
Where [14] appears, read: confluent, ref Rufener et al., 2018, read-out: IC50 confluent RH cells.
The mark [15] stands for this setting: pre-confluent, ref Rufener et al., 2018, read-out: IC50 pre-confluent RH cells.

The structures appear in SMILES notation. Read-outs that look alike come from different tables or passages of the source.

On to `CCCCC(CC)CNC(=N)NC(=N)NCCCCCCNC(=N)NC(=N)NCC(CC)CCCC` (centres unmarked) [alexidine, reference compound], for which the “PGI d5 (relative PGI release)” value in data set [1] (setting [9]) worked out at 32.36%; in data set [1] (setting [10]) it was 68.8052%. The “PGI d12 (relative PGI release)” value is given as 76.1 ± 3.2% in data set [1] (setting [9]); 76.16% in data set [1] (confirmation screen, triplicates, mean, listed as MMV396785); 92.491% in data set [1] (setting [10]). The viability (as a rule, a read-out of living cells in per cent, often relative to untreated cells) at 10 µM in data set [2] (setting [9]) is 34.4 ± 0.9%; in data set [2] (setting [11]), 4.93%. In the data set with HUVEC cell line, the “toxicity in the HUVEC cell line (in words)” value was “severe toxicity”. Also, the “toxicity against mammalian cell line (in words)” value in data set [3] is on record as “highly toxic”. Moreover, the IC50 – broadly, the point on the concentration scale where inhibition reaches its midpoint – in data set [3] (setting [12]) stood at 5.97 ± 4.89 µM; in data set [3] (setting [13]) it was 2.8 ± 1.33 µM; in data set [4], 10.7 ± 1.13 µM. Further, in data set [4], the “effect on GL cell viability (in words)” value is reported as “highly effective”.
Turning to `Cc1cc(O)c2c(c1)C(=O)c1c(I)c(C)c(I)c(O)c1C2=O` [MMV1581545], the “PGI d5 (relative PGI release)” value in [1] (setting [9]) was determined as 10.14%; in data set [1] (setting [10]) it was 18.0887%. The “PGI d12 (relative PGI release)” value is given as 30.09% in data set [1] (setting [9]) and 27.8991% in data set [1] (setting [10]). The viability at 10 µM in data set [2] (setting [9]) is 19.1%; in [2] (setting [11]), 16.4%. Besides, in data set [3], the “toxicity against mammalian cell line (in words)” value is reported as “moderate toxicity”. In addition, the IC50 in data set [3] (setting [12]) amounted to 21.3 ± 4.39 µM; in data set [3] (setting [13]), 13.8 ± 1.09 µM; in data set [3] (pre-confluent, read-out: IC50 pre-confluent RH cells) it was 14.7 ± 2.09 µM; in data set [4], 7.89 ± 1.43 µM. The “effect on GL cell viability (in words)” value in data set [4] is on record as “highly effective”.
Regarding `Cc1[nH]c2cc(F)cc(F)c2c(=O)c1-c1ccc(Oc2ccc(OC(F)(F)F)cc2)cc1` [ELQ-400], the half-maximal inhibitory concentration (IC50) in [5] (ref Rufener et al., 2018) was 0.02 ± 0.01 µM; in [6] (setting [14]), 2.07 ± 1.67 µM; in [6] (setting [15]) it was 0.25 ± 0.11 µM.
For `N#CC(C#N)=NNc1ccc(OC(F)(F)F)cc1` [FCCP], the “optimal (maximal) uncoupling concentration” value in data set [7] came out at 0.4 µM.
Regarding `O=C(Nc1cccc(C(F)(F)F)c1)c1cc(Cl)ccc1O` [MMV665807], the IC50 is 1.2 ± 1.6 µM in data set [5] (ref Stadelmann et al., 2016); 20.5 ± 0.13 µM in data set [6] (confluent, ref Stadelmann et al., 2016, read-out: IC50 confluent RH cells); 4.8 ± 0.59 µM in data set [6] (pre-confluent, ref Stadelmann et al., 2016, read-out: IC50 pre-confluent RH cells); 0.6 ± 0.37 µM in [8].
For the molecule `COC(=O)Nc1nc2ccc([S+]([O-])c3ccccc3)cc2[nH]1` (centres unmarked) [oxfendazole, reference compound], the figures for the “PGI d5 (relative PGI release)” value in data set [1] (setting [9]) and in [1] (setting [10]) were 5.40% and -1.521%, respectively. Besides, the “PGI d12 (relative PGI release)” value was determined as 29.07% in data set [1] (setting [9]) and 31.4286% in data set [1] (setting [10]). In addition, the viability at 10 µM is 30.6% in [2] (setting [9]) and 15.1% in data set [2] (setting [11]). The results for the “effect on GL cell viability (in words)” value in [4] and in data set [4] (listed as Oxfendazole) were “not able to decrease GL cell viability” and “did not reduce GL cell viability”, respectively.
For `CC(C)(C)[C@H]1CC[C@H](CC2=C(O)C(=O)c3ccccc3C2=O)CC1` [buparvaquone], the IC50 is 2.87 ± 1.45 µM in [5] (ref Rufener et al., 2018); 17.4 ± 2.09 µM in [6] (setting [14]); 8.47 ± 3.89 µM in [6] (setting [15]).
